Read-outs that look alike come from different tables or passages of the source.
Test system: Mycobacterium avium subsp. paratuberculosis CIT03
Assay: In vitro antimycobacterial evaluation (MIC/IC90, alamarBlue)
Type: cell-based
Conditions: for MIC: Mycobacterium avium
Description: The MIC/IC90 value is routinely and widely used in bacterial assays and is a standard detection limit according to the Clinical and Laboratory Standards Institute.
A well-characterized clinical isolate of Mycobacterium avium subsp. paratuberculosis (CIT03) was grown in Middlebrook broth (MB), supplemented with Oleic-Albumin-Dextrose-Catalase supplement (OADC, Becton, Dickinson and Comp., Franklin Lakes, NJ, USA) and mycobactin J (2 µg/mL). Identification of this isolate was performed using biochemical and molecular protocols. At log phase growth, a culture sample (10 mL) was centrifuged at 15,000 rpm/20 min using a bench top centrifuge (Model CR 4-12, Jouan Inc., Winchester, VA, USA). Following removal of the supernatant, the pellet was washed in fresh Middlebrook 7H9GC broth and re-suspended in fresh supplemented MB (10 mL). The turbidity was adjusted to match McFarland standard No. 1 (3 × 10^8 cfu) with MB broth. A further 1:20 dilution of the culture was then performed in MB broth. The antimicrobial susceptibility of the mycobacterial species was investigated in a 96-well plate format. In these experiments, sterile deionized water (300 µL) was added to all outer-perimeter wells of the plates to minimize evaporation of the medium in the test wells during incubation. Each evaluated compound (100 µL) was incubated with the mycobacterial species (100 µL). Dilutions of each compound were prepared in duplicate. For all synthesized compounds, final concentrations ranged from 1,000 µg/mL to 8 µg/mL. All compounds were prepared in DMSO and subsequent dilutions were made in supplemented MB. The plates were sealed with parafilm and incubated at 37 °C for 11 days.
Following incubation, a 10% addition of alamarBlue (AbD Serotec, Kidlington, UK) was mixed into each well and readings at 570 nm and 600 nm were taken, initially for background subtraction and subsequently after 24 h re-incubation. […] For non-interfering compounds, a blue colour in the well was interpreted as an absence of growth and a pink colour was scored as growth. Furthermore percent reduction of alamarBlue was calculated to generate quantitative data on cell viability during exposure to antimycobacterial compounds over a period of 5 days. The formula used to determine percent reduction of alamarBlue has been standardized for colorimetric analysis by Abd Serotec.
The MIC value is routinely and widely used in bacterial assays and is a standard detection limit according to the Clinical and Laboratory Standards Institute.

[1] = M. avium subsp. paratuberculosis, comparison of MICs

Cc1ccc(NC(=O)c2cccc3ccccc23)cc1 [Compound 3c, N-(4-Methylphenyl)naphthalene-1-carboxamide]
antimycobacterial activity relative to ciprofloxacin [1]: three-fold higher
antimycobacterial activity relative to rifampicin [1]: two-fold higher
MIC (264 h, clinical isolate CIT03, 11 days at 37 °C, alamarBlue, MIC = 90% or greater reduction of growth, read-out: MAP MIC/IC90): 57 µM
MIC (clinical isolate CIT03, read-out: MIC): 15 µg/mL
MAP MIC/IC90 (clinical isolate CIT03, 11 days at 37 °C, alamarBlue, MIC = 90% or greater reduction of growth): 57 µM
